Measured values from PubChem BioAssay (NCI).
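Grown in 96-well plates, cells were treated for 48 hours with each compound at five concentrations. Insufficient inhibition: endpoint recorded as highest concentration tested. Here, GI50 denotes the concentration required for 50% inhibition of growth. The concentration for full growth arrest is given as TGI.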

Assays:
Test in all cases: growth of human tumour cells (NCI), 48 h
786-0 renal = tested on: 786-0 renal
A498 renal = tested on: A498 renal
A549 NSCLC = tested on: A549 NSCLC
ACHN renal = tested on: ACHN renal
BT-549 breast = tested on: BT-549 breast
CAKI-1 renal = tested on: CAKI-1 renal
CCRF-CEM leukemia = tested on: CCRF-CEM leukemia
COLO 205 colon = tested on: COLO 205 colon
DU-145 prostate = tested on: DU-145 prostate
HCC-2998 colon = tested on: HCC-2998 colon
HCT-116 colon = tested on: HCT-116 colon
HCT-15 colon = tested on: HCT-15 colon
HL-60(TB) leukemia = tested on: HL-60(TB) leukemia
HOP-62 NSCLC = tested on: HOP-62 NSCLC
HOP-92 NSCLC = tested on: HOP-92 NSCLC
HS 578T breast = tested on: HS 578T breast
HT29 colon = tested on: HT29 colon
IGROV1 ovarian = tested on: IGROV1 ovarian
K-562 leukemia = tested on: K-562 leukemia
KM12 colon = tested on: KM12 colon
LOX IMVI melanoma = tested on: LOX IMVI melanoma
M14 melanoma = tested on: M14 melanoma
MALME-3M melanoma = tested on: MALME-3M melanoma
MCF7 breast = tested on: MCF7 breast
MDA-MB-231 breast = tested on: MDA-MB-231 breast
MDA-MB-435 = tested on: MDA-MB-435
MOLT-4 leukemia = tested on: MOLT-4 leukemia
NCI-H226 lung = tested on: NCI-H226 lung
NCI-H23 lung = tested on: NCI-H23 lung
NCI-H460 lung = tested on: NCI-H460 lung
NCI-H522 lung = tested on: NCI-H522 lung
NCI/ADR-RES ovarian = tested on: NCI/ADR-RES ovarian
OVCAR-3 ovarian = tested on: OVCAR-3 ovarian
OVCAR-4 ovarian = tested on: OVCAR-4 ovarian
OVCAR-5 ovarian = tested on: OVCAR-5 ovarian
OVCAR-8 ovarian = tested on: OVCAR-8 ovarian
PC-3 prostate = tested on: PC-3 prostate
RPMI-8226 leukemia = tested on: RPMI-8226 leukemia
RXF 393 renal = tested on: RXF 393 renal
SF-268 CNS = tested on: SF-268 CNS
SF-295 CNS = tested on: SF-295 CNS
SF-539 CNS = tested on: SF-539 CNS
SK-MEL-2 melanoma = tested on: SK-MEL-2 melanoma
SK-MEL-28 melanoma = tested on: SK-MEL-28 melanoma
SK-MEL-5 melanoma = tested on: SK-MEL-5 melanoma
SK-OV-3 ovarian = tested on: SK-OV-3 ovarian
SN12C renal = tested on: SN12C renal
SNB-19 CNS = tested on: SNB-19 CNS
SNB-75 CNS = tested on: SNB-75 CNS
SR leukemia = tested on: SR leukemia
SW-620 colon = tested on: SW-620 colon
T-47D breast = tested on: T-47D breast
U251 CNS = tested on: U251 CNS
UACC-257 melanoma = tested on: UACC-257 melanoma
UACC-62 melanoma = tested on: UACC-62 melanoma
UO-31 renal = tested on: UO-31 renal

## O=C1Nc2ccccc2/C1=C/C(=N/c1nnc(-c2ccccc2)s1)c1ccccc1
786-0 renal
  GI50: 1.79 µM
  TGI: 3.55 µM
A498 renal
  GI50: 6.78 µM
  TGI: 21 µM
A549 NSCLC
  GI50: 8.62 µM
  TGI: 23.6 µM
ACHN renal
  GI50: 1.56 µM
  TGI: 3 µM
BT-549 breast
  GI50: 1.91 µM
  TGI: 3.96 µM
CAKI-1 renal
  GI50: 2.58 µM
  TGI: 10.3 µM
CCRF-CEM leukemia
  GI50: 1.47 µM
  TGI: 4.72 µM
COLO 205 colon
  GI50: 1.68 µM
  TGI: 3.22 µM
DU-145 prostate
  GI50: 2.7 µM
  TGI: 7.77 µM
HCC-2998 colon
  GI50: 8.58 µM
  TGI: 21.5 µM
HCT-116 colon
  GI50: 1.34 µM
  TGI: 2.92 µM
HCT-15 colon
  GI50: 1.63 µM
  TGI: 4.01 µM
HL-60(TB) leukemia
  GI50: 1.82 µM
  TGI: 5.33 µM
HOP-62 NSCLC
  GI50: 6.05 µM
  TGI: 18 µM
HOP-92 NSCLC
  GI50: 0.987 µM
  TGI: 2.93 µM
HS 578T breast
  GI50: 2.71 µM
  TGI: 11.8 µM
HT29 colon
  GI50: 2.1 µM
  TGI: 5.37 µM
IGROV1 ovarian
  GI50: 2.13 µM
  TGI: 5.94 µM
K-562 leukemia
  GI50: 1.69 µM
  TGI: 11 µM
KM12 colon
  GI50: 5.5 µM
  TGI: 17.9 µM
LOX IMVI melanoma
  GI50: 1.61 µM
  TGI: 3.21 µM
M14 melanoma
  GI50: 3.87 µM
  TGI: 14.3 µM
MALME-3M melanoma
  GI50: 2.17 µM
  TGI: 6.67 µM
MCF7 breast
  GI50: 2.28 µM
  TGI: 11.3 µM
MDA-MB-231 breast
  GI50: 1.92 µM
  TGI: 4.95 µM
MDA-MB-435
  GI50: 2.96 µM
  TGI: 9.32 µM
MOLT-4 leukemia
  GI50: 2.23 µM
  TGI: 6.54 µM
NCI-H226 lung
  GI50: 2.5 µM
  TGI: 8.28 µM
NCI-H23 lung
  GI50: 2.88 µM
  TGI: 11 µM
NCI-H460 lung
  GI50: 7.04 µM
  TGI: 21.9 µM
NCI-H522 lung
  GI50: 0.449 µM
  TGI: 1.06 µM
NCI/ADR-RES ovarian
  GI50: 3.1 µM
  TGI: 10.3 µM
OVCAR-3 ovarian
  GI50: 1.38 µM
  TGI: 2.8 µM
OVCAR-4 ovarian
  GI50: 2.63 µM
  TGI: 12.2 µM
OVCAR-5 ovarian
  GI50: 2.09 µM
  TGI: 6.63 µM
OVCAR-8 ovarian
  GI50: 2.77 µM
  TGI: 9.35 µM
PC-3 prostate
  GI50: 2 µM
  TGI: 5.52 µM
RPMI-8226 leukemia
  GI50: 2.14 µM
  TGI: 5.21 µM
RXF 393 renal
  GI50: 1.51 µM
  TGI: 3.1 µM
SF-268 CNS
  GI50: 4.3 µM
  TGI: 16.1 µM
SF-295 CNS
  GI50: 17.1 µM
  TGI: 32.7 µM
SF-539 CNS
  GI50: 1.99 µM
  TGI: 4.64 µM
SK-MEL-2 melanoma
  GI50: 2.55 µM
  TGI: 7.07 µM
SK-MEL-28 melanoma
  GI50: 2.68 µM
  TGI: 6.93 µM
SK-MEL-5 melanoma
  GI50: 6.57 µM
  TGI: 17.9 µM
SK-OV-3 ovarian
  GI50: 6.62 µM
  TGI: 19.1 µM
SN12C renal
  GI50: 2.07 µM
  TGI: 5.69 µM
SNB-19 CNS
  GI50: 12.3 µM
  TGI: 25 µM
SNB-75 CNS
  GI50: 3.7 µM
  TGI: 16.9 µM
SR leukemia
  GI50: 0.957 µM
  TGI: 6.76 µM
SW-620 colon
  GI50: 1.2 µM
  TGI: 2.74 µM
T-47D breast
  GI50: 2.45 µM
  TGI: 10.1 µM
U251 CNS
  GI50: 4.91 µM
  TGI: 17.7 µM
UACC-257 melanoma
  GI50: 3.81 µM
  TGI: 10.6 µM
UACC-62 melanoma
  GI50: 1.72 µM
  TGI: 3.74 µM
UO-31 renal
  GI50: 1.45 µM
  TGI: 3.31 µM
